{
  "source": "patent US10555987B2",
  "about": "“GHRH agonists for the treatment of ischemic disorders” (UNIVERSITY OF MIAMI, priority 2012, dated 2020)",
  "key": {"[1]": {"system": "myocardial infarction (Fisher-344 rats)", "assay": "Hemodynamic analysis (pressure-volume loops), body and heart weight after MI, compared to JI-38 (Example 15, Table 16)", "type": "in vivo, rat", "design": "key to ESP (End-Systolic Pressure) / EDP (End-Diastolic Pressure) / ESV (End-Systolic Volume) / PRSW (Preload Recruitable Stroke Work) / Ees (End-systolic Elastance) / dP/dt max (peak rate of the pressure rise) / dP/dt max_EDV / dP/dt min / TAU (relaxation time constant calculated by Weiss method) / SV (Stroke Volume) / CO (Cardiac Output) / SW (Stroke Work) / EF / Ea/Ees / Ea (arterial Elastance): ↓: downward arrow denotes lower than JI-38; ↑: upward arrow denotes greater than JI-38; =denotes same as JI-38; ⬇⬇: double arrow denotes greater effect; ⬆⬆: double arrow denotes greater effect", "settings": "rat MI model, s.c. twice daily; pressure-volume loops; expressed in comparison to JI-38", "outline": "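Female 6-month-old Fisher-344 rats after permanent left coronary ligation received GHRH agonists subcutaneously twice daily from 2 h post-surgery (n=10/group). Under ketamine/xylazine/acepromazine anesthesia, LV pressure-volume loops were recorded via carotid micromanometer catheter, calibrated by hypertonic saline bolus and cuvette method; echocardiography also serial.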"}, "GH release": {"system": "GH release", "assay": "GH releasing potency in vivo, subcutaneous administration (Example 14, Table 12)", "design": "species or system rat", "settings": "s.c.", "outline": "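Potency is expressed relative to GHRH(1-29)NH2 and JI-38 (each = 1), via equivalent GHRH(1-29)NH2 dose read from a standard curve. Peptides in 5% mannitol given i.v. or s.c. to anaesthetised male Sprague-Dawley rats (200-250 g); serum GH measured by ELISA at selected times.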"}, "GHRH receptor [2]": {"target": "T1, GHRH receptor (Homo sapiens, UniProt Q02643)", "T1 sequence (Q02643 23-423)": "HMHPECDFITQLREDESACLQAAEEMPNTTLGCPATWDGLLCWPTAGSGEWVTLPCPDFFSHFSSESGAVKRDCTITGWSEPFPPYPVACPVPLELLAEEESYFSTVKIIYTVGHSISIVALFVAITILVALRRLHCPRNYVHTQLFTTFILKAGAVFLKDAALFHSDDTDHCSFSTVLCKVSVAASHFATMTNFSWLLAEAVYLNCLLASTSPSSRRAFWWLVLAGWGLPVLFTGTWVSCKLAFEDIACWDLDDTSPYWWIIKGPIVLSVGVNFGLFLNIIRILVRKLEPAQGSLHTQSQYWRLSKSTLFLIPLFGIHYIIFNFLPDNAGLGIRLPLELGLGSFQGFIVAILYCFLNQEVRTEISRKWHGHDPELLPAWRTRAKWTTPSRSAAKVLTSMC", "assay": "Receptor binding in vitro, 125I-labeled [His1,Nle27]-hGHRH(1-32)NH2, membrane receptors of human anterior pituitary cells (Table 14)", "text": "Normal human pituitary was purchased from the National Hormone and Peptide Program (UCLA Medical Center, Torrance, Calif.)."}, "GHRH receptor [3]": {"target": "T1, GHRH receptor", "assay": "GHRH receptor binding, competition with 125I-labeled JV-1-42, human pituitary membrane homogenates (Table 7)", "design": "Normal human pituitaries were purchased from the National Hormone and Peptide Program; tissue National Hormone and Peptide Program (A.F. Parlow, Harbor-UCLA Medical Center, Torrance, Calif.); host or cells: normal human pituitary, membrane fraction", "settings": "JI-38 = 1, Table 7", "excerpt": "Normal human pituitaries were purchased from the National Hormone and Peptide Program (A.F. Parlow, Los Angeles, County Harbor-UCLA Medical Center, Torrance, Calif.)."}},
  "note": "Non-standard residues stand in square brackets, D forms with d. Residues, ends and D or L forms follow the SMILES beside them. Phe(F5) = N[C@@H](Cc1c(F)c(F)c(F)c(F)c1F)C(=O)O; NMeY = CN[C@@H](Cc1ccc(O)cc1)C(=O)O; Nle = CCCC[C@H](N)C(=O)O; Orn = NCCC[C@H](N)C(=O)O; Abu = CC[C@H](N)C(=O)O",
  "data": [
    {"compound": "CCCC[C@H](NC(=O)[C@@H](NC(=O)[C@H](CC(=O)O)NC(=O)[C@H](CCC(N)=O)NC(=O)[C@H](CC(C)C)NC(=O)[C@H](CC(C)C)NC(=O)[C@H](CCCN)NC(=O)[C@H](CCCNC(=N)N)NC(=O)[C@H](C)NC(=O)[C@H](CO)NC(=O)[C@H](CC(C)C)NC(=O)[C@H](CCC(N)=O)NC(=O)[C@H](CC)NC(=O)[C@H](CC(C)C)NC(=O)[C@@H](NC(=O)[C@H](CCCN)NC(=O)[C@H](CCCNC(=N)N)NC(=O)[C@H](Cc1ccc(O)cc1)NC(=O)[C@H](CO)NC(=O)[C@H](CCC(N)=O)NC(=O)[C@@H](NC(=O)[C@H](Cc1c(F)c(F)c(F)c(F)c1F)NC(=O)[C@@H](NC(=O)[C@H](C)NC(=O)[C@H](CC(=O)O)NC(=O)[C@@H](C)NC(=O)[C@H](Cc1ccc(O)cc1)NC)[C@@H](C)CC)[C@@H](C)O)C(C)C)[C@@H](C)CC)C(=O)N[C@@H](CC(=O)O)C(=O)N[C@@H](CCCNC(=N)N)C(=O)NC", "note": "[Peptide P-27404, [N—Me-Tyr^1, D-Ala^2, Fpa5^6, Orn^12, Abu^15, Orn^21, Nle^27, Asp^28]hGHRH (1-29)NH—CH3] (H-[NMeY][dA]DAI[Phe(F5)]TQSYR[Orn]VL[Abu]QLSAR[Orn]LLQDI[Nle]DR-NHMe)", "values": [
      {"measurement": "CO (Cardiac Output)", "setting": "[1]", "value": "↑"},
      {"measurement": "EDP (End-Diastolic Pressure)", "setting": "[1]", "value": "↑"},
      {"measurement": "EF", "setting": "[1]", "value": "↑"},
      {"measurement": "ESP (End-Systolic Pressure)", "setting": "[1]", "value": "="},
      {"measurement": "ESV (End-Systolic Volume)", "setting": "[1]", "value": "="},
      {"measurement": "Ea (arterial Elastance)", "setting": "[1]", "value": "="},
      {"measurement": "Ea/Ees", "setting": "[1]", "value": "="},
      {"measurement": "Ees (End-systolic Elastance)", "setting": "[1]", "value": "="},
      {"measurement": "PRSW (Preload Recruitable Stroke Work)", "setting": "[1]", "value": "="},
      {"measurement": "SV (Stroke Volume)", "setting": "[1]", "value": "↑"},
      {"measurement": "SW (Stroke Work)", "setting": "[1]", "value": "="},
      {"measurement": "TAU (relaxation time constant calculated by Weiss method)", "setting": "[1]", "value": "="},
      {"measurement": "dP/dt max (peak rate of the pressure rise)", "setting": "[1]", "value": "="},
      {"measurement": "dP/dt max_EDV", "setting": "[1]", "value": "="},
      {"measurement": "dP/dt min", "setting": "[1]", "value": "="},
      {"measurement": "Serum GH level at selected time after injection (ng/ml), 0 min", "setting": "GH release; male rats, dose 3 μg/kg, 0 min, mean ± SEM", "value": "29.5 ± 3.2", "unit": "ng/mL"},
      {"measurement": "Serum GH level at selected time after injection (ng/ml), 15 min", "setting": "GH release; male rats, dose 3 μg/kg, 15 min, mean ± SEM", "value": "320.5 ± 32.7", "unit": "ng/mL"},
      {"measurement": "Serum GH level at selected time after injection (ng/ml), 30 min", "setting": "GH release; male rats, dose 3 μg/kg, 30 min, mean ± SEM", "value": "151 ± 28.5", "unit": "ng/mL"},
      {"measurement": "Relative potency compared to GHRH(1-29), 15 min", "setting": "GH release; 15 min", "value": 97.1},
      {"measurement": "Relative potency compared to JI-38, 15 min", "setting": "GH release; 15 min", "value": 1.54},
      {"measurement": "Relative potency compared to GHRH(1-29), 30 min", "setting": "GH release; 30 min", "value": 148.4},
      {"measurement": "Relative potency compared to JI-38, 30 min", "setting": "GH release; 30 min", "value": 1.33},
      {"measurement": "Relative affinity (Binding potency) compared to JI-38", "setting": "GHRH receptor [2]; JI-38 = 1", "value": 2.45},
      {"measurement": "Relative affinity (Binding potency) compared to hGHRH(1-29)", "setting": "GHRH receptor [2]; hGHRH(1-29)NH2 = 1", "value": 6.83},
      {"measurement": "Relative affinity (Binding potency) vs JI-38", "setting": "GHRH receptor [3]", "value": 5.00}
    ]}
  ]
}
